Experimental data taken from ChEMBL document CHEMBL4680158, “C6-O-alkylated 7-deazainosine nucleoside analogues: Discovery of potent and selective anti-sleeping sickness agents” (Eur J Med Chem, 2020).

Key:
[1] = Resistance factor, ratio of EC50 for antitrypanosomal activity against drug resistant Trypanosoma brucei ISMR1 to antitrypanosomal activity against Trypanosoma brucei brucei Lister 427 blood stream form; type: functional
[2] = Resistance factor, ratio of EC50 for antitrypanosomal activity against drug resistant Trypanosoma brucei B48 to antitrypanosomal activity against Trypanosoma brucei brucei Lister 427 blood stream form; type: functional
[3] = Resistance factor, ratio of EC50 for antitrypanosomal activity against drug resistant Trypanosoma brucei harboring TbAT1 deficient to antitrypanosomal activity against Trypanosoma brucei brucei Lister 427 blood stream form; type: functional
[4] = Selectivity index, ratio of EC50 for cytotoxicity against human MRC5 cells to EC50 for antitrypanosomal activity against Trypanosoma brucei brucei; type: toxicity, cell-based; details: read-out: Ratio EC50
Trypanosoma brucei [5] = assay: Antitrypanosomal activity against drug resistant Trypanosoma brucei harboring TbAT1 deficient assessed as reduction in parasite viability incubated for 48 hrs by resazurin dye based fluorescence assay; type: functional, organism-based
[6] = test system: Trypanosoma brucei rhodesiense; assay: Antitrypanosomal activity against Trypanosoma brucei rhodesiense assessed as reduction in parasite growth incubated for 3 days by resazurin dye based fluorescence assay; type: functional, organism-based; details: 72 h
MRC5 = assay: Cytotoxicity against human MRC5 cells assessed as reduction in cell viability incubated for 3 days by resazurin dye based fluorescence assay; details: MRC5, 72 h
[7] = Selectivity index, ratio of EC50 for cytotoxicity against human MRC5 cells to EC50 for antitrypanosomal activity against Trypanosoma brucei rhodesiense; type: toxicity, cell-based; details: read-out: Ratio EC50
Trypanosoma brucei [8] = assay: Antitrypanosomal activity against drug resistant Trypanosoma brucei ISMR1 assessed as reduction in parasite viability incubated for 48 hrs by resazurin dye based fluorescence assay; type: functional, organism-based; details: ISMR1, 48 h
Trypanosoma brucei [9] = assay: Antitrypanosomal activity against drug resistant Trypanosoma brucei B48 assessed as reduction in parasite viability incubated for 48 hrs by resazurin dye based fluorescence assay; type: functional, organism-based; details: B48, 48 h
[10] = test system: Trypanosoma brucei brucei; assay: Antitrypanosomal activity against Trypanosoma brucei brucei assessed as reduction in parasite growth incubated for 3 days by resazurin dye based fluorescence assay; type: functional, organism-based; details: 72 h
[11] = test system: Trypanosoma brucei brucei; assay: Antitrypanosomal activity against Trypanosoma brucei brucei Lister 427 blood stream forms assessed as reduction in parasite viability incubated for 48 hrs by resazurin dye based fluorescence assay; type: functional, organism-based; details: Lister 427, 48 h
[12] = Inhibition of Trypanosoma brucei P2 transporter assessed as reduction in [3H]-adenosine uptake by scintillation counting method
[13] = Inhibition of Trypanosoma brucei P1 transporter assessed as reduction in [3H]-adenosine uptake by scintillation counting method
Trypanosoma brucei [14] = assay: (§1) Inhibition of Trypanosoma brucei P2 transporter assessed as reduction in [3H]-adenosine uptake measured after 60 sec by scintillation counting method
Trypanosoma brucei [15] = assay: (§2) Inhibition of Trypanosoma brucei P1 transporter assessed as reduction in [3H]-adenosine uptake measured after 60 sec by scintillation counting method
[16] = as §1
[17] = as §2

| Structure (SMILES) | Ratio EC50 [1] | Ratio EC50 [2] | Ratio EC50 [3] | selectivity ratio [4] | EC50 [6] [nM] | EC50 (MRC5) [nM] | selectivity ratio [7] | EC50 [10] [nM] | also measured |
| --- | --- | --- | --- | --- | --- | --- | --- | --- | --- |
| N=C(N)c1ccc(/N=N/Nc2ccc(C(=N)N)cc2)cc1 | 6.9 | 16.9 | 10.6 | – | – | – | – | – | – |
| CC[n+]1c(-c2ccccc2)c2cc(N/N=N/c3cccc(C(=N)N)c3)ccc2c2ccc(N)cc21 | 4.8 | 0.85 | 1.2 | – | – | – | – | – | – |
| COc1ncnc2c1c(Br)cn2[C@@H]1O[C@H](CO)[C@@H](O)[C@H]1O | 0.85 | 0.77 | 0.71 | > 336 | 36 | > 64000 | > 1780 | 190 | EC50 (Trypanosoma brucei [5]): 83 nM; EC50 (Trypanosoma brucei [8]): 99 nM; EC50 (Trypanosoma brucei [9]): 90 nM; EC50 [11]: 117 nM |
| Nc1ncnc2c1ccn2[C@@H]1O[C@H](CO)[C@@H](O)[C@H]1O [TUBERCIDIN] | – | – | – | – | – | – | – | – | Ki [12]: 3800 nM; Ki [13]: 78000 nM |
| Nc1ncnc2c1ncn2[C@@H]1O[C@H](CO)[C@@H](O)[C@H]1O | – | – | – | – | – | – | – | – | Km (Trypanosoma brucei [14]): 0.53 µM; Km (Trypanosoma brucei [15]): 0.12 µM |
| COc1ncnc2c1c(Cl)cn2[C@@H]1O[C@H](CO)[C@@H](O)[C@H]1O | 0.84 | 0.57 | 0.57 | > 200 | 36 | ≥ 32000 | > 888 | 160 | Ki [16]: 149000 nM; EC50 (Trypanosoma brucei [5]): 57 nM; Ki [17]: 35500 nM; EC50 (Trypanosoma brucei [8]): 84 nM; EC50 (Trypanosoma brucei [9]): 57 nM; EC50 [11]: 100 nM |
| COc1nc(N)nc2c1c(Br)cn2[C@@H]1O[C@H](CO)[C@@H](O)[C@H]1O | – | – | – | 24 | 77 | 3240 | 42 | 130 | – |
| COc1ncnc2c1c(I)cn2[C@@H]1O[C@H](CO)[C@@H](O)[C@H]1O | – | – | – | 168 | 53 | 38400 | 708 | 220 | – |
| CCOc1ncnc2c1c(Cl)cn2[C@@H]1O[C@H](CO)[C@@H](O)[C@H]1O | 2.45 | 1.7 | 1.43 | > 275 | 57 | ≥ 64000 | > 578 | 120 | Ki [16]: 139000 nM; EC50 (Trypanosoma brucei [5]): 113 nM; Ki [17]: 99000 nM; EC50 (Trypanosoma brucei [8]): 194 nM; EC50 (Trypanosoma brucei [9]): 134 nM; EC50 [11]: 79 nM |
| O=c1[nH]cnc2c1ccn2[C@@H]1O[C@H](CO)[C@@H](O)[C@H]1O [IMMUNICILLIN H] | – | – | – | 7.4 | 19100 | 31300 | 1.6 | 4200 | – |
| Nc1nc(Cl)c2ccn([C@@H]3O[C@H](CO)[C@@H](O)[C@H]3O)c2n1 | – | – | – | > 131 | 180 | > 64000 | > 347 | 490 | – |
| CC(C)Oc1ncnc2c1c(Cl)cn2[C@@H]1O[C@H](CO)[C@@H](O)[C@H]1O | 1.47 | 1.02 | 1.08 | > 711 | 100 | > 64000 | > 640 | 90 | Ki [16]: 246000 nM; EC50 (Trypanosoma brucei [5]): 198 nM; Ki [17]: 284000 nM; EC50 (Trypanosoma brucei [8]): 270 nM; EC50 (Trypanosoma brucei [9]): 188 nM; EC50 [11]: 184 nM |
| OC[C@H]1O[C@@H](n2cc(Cl)c3c(OC4CCCC4)ncnc32)[C@H](O)[C@@H]1O | – | – | – | 191 | 120 | 38100 | 326 | 200 | – |
| O=c1[nH]cnc2c1c(I)cn2[C@@H]1O[C@H](CO)[C@@H](O)[C@H]1O | – | – | – | > 1.1 | 23900 | > 64000 | > 2.7 | 57300 | – |
| O=c1[nH]cnc2c1c(F)cn2[C@@H]1O[C@H](CO)[C@@H](O)[C@H]1O | – | – | – | 21 | 1060 | 2030 | 1.9 | 100 | – |
| CC(C)COc1ncnc2c1c(Cl)cn2[C@@H]1O[C@H](CO)[C@@H](O)[C@H]1O | – | – | – | 694 | 30 | 49500 | 1670 | 71 | – |
| CCCCOc1ncnc2c1c(Cl)cn2[C@@H]1O[C@H](CO)[C@@H](O)[C@H]1O | – | – | – | 19 | 36 | 1320 | 37 | 69 | – |
| CCCCCOc1ncnc2c1c(Cl)cn2[C@@H]1O[C@H](CO)[C@@H](O)[C@H]1O | – | – | – | 1.1 | 32 | 100 | 3.2 | 88 | – |
| Nc1nc2c(c(Br)cn2[C@@H]2O[C@H](CO)[C@@H](O)[C@H]2O)c(=O)[nH]1 | – | – | – | > 31 | 490 | > 64000 | > 130 | 2010 | – |
| CC(C)CCOc1ncnc2c1c(Cl)cn2[C@@H]1O[C@H](CO)[C@@H](O)[C@H]1O | – | – | – | > 1100 | 29 | > 64000 | > 2200 | 58 | – |
| O=c1[nH]cnc2c1ccn2[C@@H]1O[C@H](CO)C[C@H]1O | – | – | – | > 2 | 2900 | > 64000 | > 22 | 29600 | – |
| O=c1[nH]cnc2c1c(Br)cn2[C@@H]1O[C@H](CO)C[C@H]1O | – | – | – | > 7 | 23000 | > 64000 | > 28 | 8100 | – |
| N=C(N)c1ccc(OCCCCCOc2ccc(C(=N)N)cc2)cc1 | 13.8 | 94.6 | 1.8 | – | – | – | – | – | – |
